In assay [1] the test system is C2C12 cells. The assay can be described thus: Effect of Lat-B treatment during the 24 hrs before delamination on detachment / sheet formation. It counts as cell-based. How it is done:
In order to start the delamination process DM was replaced with acidic medium (medium A) (DM with 0.1% V/V acetic acid, final pH of ˜6) and samples were incubated for 5-10 min at 37° C. At this point that sheets started to delaminate the process was accelerated by gentle shaking of the well plate. Process could be accelerated by applying shear force using gentle pipetting of medium to the edges of the wells. Immediately after delamination was completed, medium A was replaced with basic medium (medium B, final pH of ˜8) (DM with 0.1% V/V 0.1 M sodium hydroxide in deionized water) in order to prevent samples from forming clumps. After 5 min of treatment with medium B, samples were transferred to neutral medium (medium N, pH of 7.4) (DM without any pH adjustment). In case of stacks, the required number of sheets, either 2 layers of cell sheets (double-layer constructs) or 4 layers (quadruple-layer constructs), were stacked on top of each other by simply dragging them using a tweezer and placing them on each other. This process was also performed in abundant amounts of medium B and after stacking was done, most of the media was aspirated to let the sheets settle down because of their weight for 5 more minutes and then extra medium N was added (FIG. 1B). Images of sheets were taken 1 hr after delamination/stacking and 24 hrs later using a stereomicroscope (Infinity Optical Systems). Diameter of the sheets was used using ImageJ at these time points to study effect of number of layers on shrinkage pattern of the constructs.
(§1) Difference in cytoskeleton reorganization of differentiated cells vs. undifferentiated ones was studied by treating cells with Latrunculin-B (Lat-B) (Abcam, ab144291). C2C12 cells grown in GM and the partially differentiated ones in DM were treated with 100 nM Lat-B in GM and DM, respectively, for 1 hr at D1 and microscopy was performed using inverted microscope in brightfield mode. Effect of cytoskeleton reorganization on detachment of the sheets was also studied by treating the cells with 50 and 100 nM of Lat-B in DM during the 24 hrs before delamination. Lat-B stock solution was prepared by dissolving 100 μg in 1 mL DMSO.

For assay [2], the system named is C2C12 cells. As to the kind of experiment: Effect of Lat-B on cytoskeleton reorganization / morphology of C2C12 cells (brightfield microscopy). It counts as cell-based. How it is done: as §1
For assay [3], the system named is C2C12 cells. Particulars: 100 nM in DM, Nowak et al. 2009; cited from earlier work.

The values below come from patent publication US20230272345A1, “SELF-ASSEMBLED CELL SHEET CONSTRUCTS AND METHODS OF MAKING THEREOF” (Caro Meats Inc., priority 2020, published 2023).

For `C/C1=C/C(=O)O[C@@H]2C[C@@H](CC[C@H](C)/C=C\CC1)O[C@@](O)([C@@H]1CSC(=O)N1)C2` [Lat-B, Latrunculin-B], the “Delamination / sheet formation” value in assay [1] (50 nM Lat-B in DM for 24 hrs before delamination) was “started to delaminate, but the sheets were fragile and broke to smaller pieces”; in assay [1] (50 nM Lat-B in DM for 24 hrs before delamination, listed as Latrunculin-B) it was “delaminated but were fragile”; in assay [1] (100 nM Lat-B in DM for 24 hrs before delamination), “did not form sheets at all”; in assay [1] (100 nM Lat-B in DM for 24 hrs before delamination, listed as Latrunculin-B) it was “did not form continuous sheets”. The “Morphology after 24 hr of treatment” value in assay [2] (50 nM Lat-B in DM, 24 hr (D1 to D2)) is recorded as “slightly round”. Also, the “Morphology during the first few hours” value in assay [2] (50 nM Lat-B in DM, first few hours (data not shown)) was “did not show significant changes in their morphology”. Moreover, the “Morphology of partially differentiated cells” value in assay [2] (100 nM Lat-B in DM, 1 hr at D1, partially differentiated C2C12) was “changed very fast to round cells and eventually they formed clumps of cells”. For the same compound, the “Morphology after 24 hrs of treatment” value in assay [2] (100 nM Lat-B in DM, 24 hrs (D1 to D2)) is on record as “regained their stretched morphology after 24 hrs of treatment but were still rounder compared to untreated cells”. In addition, in assay [2] (100 nM Lat-B in GM, 1 hr at D1, undifferentiated C2C12), the “Morphology of undifferentiated cells” value is “only became slightly round”. For the same compound, the “Fusion of C2C12 cells” value in assay [3] is given as “would not fuse to each other”.
